In patent US20200305426A1, “BOOSTERS FOR ANTIMICROBIAL, PRESERVATIVE AND BIOCIDAL APPLICATIONS” (EMERALD KALAMA CHEMICAL, LLC, priority 2017, published 2020):

How the values were obtained:
[1] = tested on: S. aureus, E. coli, P. aeruginosa, C. albicans, and A. brasiliensis; assay: Challenge test in skin lotion formulation, European Pharmacopeia criteria; type: cell-based; conditions: for European Pharmacopeia two-day and 14-day criteria: skin lotion pH 6.5; for European Pharmacopeia 14-day criteria / European Pharmacopeia two-day criteria: skin lotion; for European Pharmacopeia 14-day criteria: 0.25 wt. % booster with 0.5 wt. % sodium benzoate and 0.66 wt. % benzyl alcohol; for European Pharmacopeia two-day criteria: 0.25 wt. % booster with 0.5 wt. % sodium benzoate and 1 wt. % benzyl alcohol
Protocol: (§1) For the European Pharmacopeia, a “pass” test for efficacy is a two-log reduction for bacteria after two days, a three-log reduction in bacteria after […], a two-log reduction in mold and yeast at 14 days and no increase at 28 days.
Skin Lotion Formulation Experimental—An exemplary, model skin lotion having a pH of 6.5 as set forth below in Table 1 was prepared for testing. The invention is not limited to use in this specific lotion but was used to illustrate the advantages of the invention.
In this example, 3-phenyl propanol was used to enhance the performance of low concentrations of sodium benzoate and benzyl alcohol. This example evaluated boosting performance of 3-phenyl propanol in a skin lotion formulation having a pH of 6.5, the ingredients of which are listed in Table 1. Each formulation contained 0.25 wt. % of sodium benzoate and 0.25 wt. % of benzyl alcohol.
(§2) In this example, EDTA was used to enhance the performance of sodium benzoate and benzyl alcohol in a skin lotion formulation at pH, the ingredients of which are set forth in Table 1. Each formulation contained 0.5 wt. % of sodium benzoate and 0.25 wt. % of EDTA with benzyl alcohol varying up to 1 wt. %. The control was comprised of 0.5 wt. % sodium benzoate and 1 wt. % benzyl alcohol without EDTA.
as §2, with “example, sodium gluconate” for “example, EDTA”, “at pH 6.5,” for “at pH,”, “of sodium gluconate,” for “of EDTA”, “control” for “control was”, “comprised” for “comprised of”, “without sodium gluconate.” for “without EDTA.”
In this example, caprylyl glycol was used to enhance the performance of sodium benzoate and benzyl alcohol in a skin lotion formulation at pH 6.5, the ingredients of which are set forth in Table 1. FIGS. 27 and 28 reflect log reduction data of colony forming units (CFU) of microbe strains exposed to sodium benzoate, benzyl alcohol, and caprylyl glycol concentrations in skin lotion media after two and fourteen days. […] A control was utilized comprising 0.5 wt. % sodium benzoate and 1 wt. % benzyl alcohol without caprylyl glycol.

[2] = tested on: A. brasiliensis, C. albicans, E. coli, P. aeruginosa, and S. aureus; assay: Challenge test (USP-51 / European Pharmacopeia) in tryptic soy broth, log reduction of CFU; type: cell-based
[3] = tested on: Pseudomonas aeruginosa; conditions: tryptic soy broth pH 6.5; with 0.25 wt. % sodium benzoate and 0.25 wt. % benzyl alcohol; two days
Text: (§3) Challenge Testing Methodology—Experimental—Several industry standard testing methodologies exist for evaluating antimicrobial efficacy. Two common examples of such standards include United States Pharmacopeia (USP 51) and European Pharmacopeia (EP) testing methodology. These methodologies are particularly useful in that they have criteria and methodologies distinguishing between oral products, topical products and pharmaceutical products, among others.
In conducting the testing, the compound or product to be evaluated is separated out into individual containers, each being challenged with one of the method-specified microorganisms (S. aureus—ATCC 6538 USP51/EP, E. coli—ATCC 8739 EP, P. aeruginosa—ATCC 9027 USP51/EP, C. albicans—ATCC 10231 USP51/EP, and A. brasiliensis—ATCC 16404 USP51/EP) at a concentration of >1×10^5 CFU/g or ml. The initial concentration of each microorganism is determined by inoculating a control substance and using standard dilution and plating techniques. […] The inoculated broth is held at room temperature and is evaluated at specific intervals. USP-51 evaluates at the 14-day and 28-day intervals. EP evaluates results at 2-day, 7-day, 14-day, and 28-day. […] After a period of incubation (48 hours for bacteria, up to 5 days for yeast and mold) surviving microorganisms are counted, and the log reduction of each microorganism at each interval is reported. […]

[4] = tested on: K. aerogenes (ATCC 13048) and P. aeruginosa (ATCC 9027); assay: Challenge test in tryptic soy broth at pH 9.0, log reduction of CFU; type: cell-based; conditions: 2.5 wt. % alone; tryptic soy broth pH 9.0; up to one week
Text: FIG. 29 reflects log reduction data for colony forming units (CFU) of microbe strains in tryptic soy broth growth media at pH 9.0 up to 28 days.
FIG. 30 reflects log reduction data for colony forming units (CFU) of microbe strains exposed to benzylamine at 2.5 wt. % in tryptic soy broth at pH 9.0 up to one week.
Strains of K. aerogenes (ATCC 13048) and P. aeruginosa (ATCC 9027) were utilized for testing as they are commonly found in many water-based products, including without limitation cosmetics and coatings. These organisms were challenged into the soy broth using the same methods as in the other examples. Time points were selected based on time points from ASTM 2574, which is a method for evaluating antimicrobial efficacy in waterborne emulsion based paints.

[5] = tested on: A. brasiliensis, C. albicans, E. coli, P. aeruginosa, and S. aureus; assay: Challenge test (USP-51 / European Pharmacopeia) in tryptic soy broth, log reduction of CFU; type: cell-based; conditions: tryptic soy broth pH 6.5
Text: as §3
In conducting the testing, the compound or product to be evaluated is separated out into individual containers, each being challenged with one of the method-specified microorganisms (S. aureus—ATCC 6538 USP51/EP, E. coli—ATCC 8739 EP, P. aeruginosa—ATCC 9027 USP51/EP, C. albicans—ATCC 10231 USP51/EP, and A. brasiliensis—ATCC 16404 USP51/EP) at a concentration of >1×10^5 CFU/g or ml. The initial concentration of each microorganism is determined by inoculating a control substance and using standard dilution and plating techniques. […] The inoculated broth is held at room temperature and is evaluated at specific intervals. USP-51 evaluates at the 14-day and 28-day intervals. EP evaluates results at 2-day, 7-day, 14-day, and 28-day. At each contact time, the inoculated product is chemically neutralized and plated using standard dilution and plating techniques. After a period of incubation (48 hours for bacteria, up to 5 days for yeast and mold) surviving microorganisms are counted, and the log reduction of each microorganism at each interval is reported.
For the European Pharmacopeia, a “pass” test for efficacy is a two-log reduction for bacteria after two days, a three-log reduction in bacteria after […], a two-log reduction in mold and yeast at 14 days and no increase at 28 days. For the USP-51, a two-log reduction in bacteria is required at 14 days and no increase at 28 days. For mold and yeast, USP-51 requires no increase at 14 days and 28 days. “No increase” is defined as a […]. […]
The challenge testing was conducted by a Food and Drug Administration (FDA) certified outside testing lab utilizing standard USP-51 and European Pharmacopeia methodologies as summarized in the Challenge Testing Methodology section above. Antimicrobial efficacy was determined in tryptic soy broth growth media, pH-balanced with sodium hydroxide or hydrochloric acid as required to achieve specific pH ranges. […]
The boosting efficacy of various concentrations of EDTA (0 to 0.5 wt. %, with “0” being a control without the EDTA booster) in tryptic soy broth growth media at pH 6.5 was evaluated against various microbes (A. brasiliensis, C. albicans, E. coli, P. aeruginosa, and S. aureus). […]

[6] = tested on: A. brasiliensis; assay: Challenge test in tryptic soy broth, log reduction of CFU; type: cell-based; conditions: with 0.25 wt. % sodium benzoate and 0.25 wt. % benzyl alcohol, 14 and 28 days
Protocol: as §1
Data was reported at 30 minutes, two days, fourteen days and twenty-eight days.
[…] The data was collected at 30 minutes, two days, fourteen days and twenty-eight days.

[7] = tryptic soy broth pH 8, booster at various concentrations with 0.25 wt. % sodium benzoate and 0.25 wt. % benzyl alcohol

OCCCc1ccccc1 [3-phenyl propanol]
European Pharmacopeia two-day and 14-day criteria ([1]; 0.35 wt. % booster with 0.25 wt. % sodium benzoate and 0.25 wt. % benzyl alcohol): met the two-day and 14-day criteria

O=C(O)CN(CCN(CC(=O)O)CC(=O)O)CC(=O)O [EDTA, ethylenediaminetetraacetic acid]
antimicrobial performance (log reduction of CFU) ([2]; tryptic soy broth pH 6.5, booster 0 to 0.5 wt. % with 0.25 wt. % sodium benzoate and 0.25 wt. % benzyl alcohol, 30 minutes, two, fourteen, twenty-eight days): improved antimicrobial performance | log reduction as a function of booster concentration ([2]; tryptic soy broth pH 8.0, booster 0 to 0.5 wt. % with 0.25 wt. % sodium benzoate and 0.25 wt. % benzyl alcohol): increased log reduction with increasing concentrations | antimicrobial performance (log reduction of CFU) [2, 7]: improved antimicrobial performance | European Pharmacopeia 14-day criteria [1]: met the 14-day criteria | European Pharmacopeia two-day criteria [1]: met the two-day criteria | activity against Pseudomonas aeruginosa [3]: particularly good activity

OCc1ccccc1 [benzyl alcohol, reference compound]
antimicrobial effectiveness (log reduction of CFU) compared to control [4]: exactly the same as for benzylamine

NCc1ccccc1 [benzylamine]
antimicrobial effectiveness (log reduction of CFU) compared to control [4]: antimicrobial effectiveness achieved

CCCCCCC(O)CO (stereo not drawn) [caprylyl glycol]
antimicrobial boosting potential at lowest use concentration ([5]; 1 wt. % booster with 0.25 wt. % sodium benzoate and 0.25 wt. % benzyl alcohol): outstanding antimicrobial boosting potential | two-day log reduction ([5]; caprylyl glycol up to 5 wt. %, regardless of concentration, 0.25 wt. % sodium benzoate and 0.25 wt. % benzyl alcohol, two days): two-log reduction achieved against all microbes tested | antimicrobial performance (log reduction of CFU) [2, 7]: improved antimicrobial performance | two-day log reduction ([2]; tryptic soy broth pH 8, caprylyl glycol up to 5 wt. %, regardless of concentration, 0.25 wt. % sodium benzoate and 0.25 wt. % benzyl alcohol, two days): two-log reduction achieved against all microbes tested | European Pharmacopeia two-day and 14-day criteria ([1]; 0.5 wt. % booster with 0.25 wt. % sodium benzoate and 0.25 wt. % benzyl alcohol): met the two-day and 14-day criteria

O=C([O-])[C@H](O)[C@@H](O)[C@H](O)[C@H](O)CO.[Na+] [sodium gluconate]
log reduction as a function of booster concentration ([5]; booster 0 to 0.5 wt. % with 0.25 wt. % sodium benzoate and 0.25 wt. % benzyl alcohol, seen at 14 and 28 days): increased log reduction with increased concentration | booster strength compared with EDTA ([5]; sodium benzoate/benzyl alcohol combination): not as strong a booster as EDTA | activity against the mold A. brasiliensis ([6]; tryptic soy broth pH 6.5): Good activity | activity against the mold A. brasiliensis ([6]; tryptic soy broth pH 8): Particularly good activity | antimicrobial performance (log reduction of CFU) [2, 7]: improved antimicrobial performance | European Pharmacopeia 14-day criteria [1]: met the 14-day criteria | European Pharmacopeia two-day criteria [1]: met the two-day criteria
